Assay results published in PubChem BioAssay AID248 (DTP/NCI, 2004).
“And” between values parts separate entries of the source, which are not always exact repeats. Identical values can stand only once. Inconclusive results and toxic doses are left out. Rule as the data show it: active = T/C of 150% or more; inactive = T/C below 125%.

Test system: L1210 leukemia ip in BDF1 mice, survival T/C
Assay: NCI In Vivo Anticancer Drug Screen. Data for tumor model L1210 Leukemia (intraperitoneal) in B6D2F1 (BDF1) mice
Details: endpoint: mean survival time, higher = longer survival
Outline: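 Ratio derived from survival: compound-dosed mice over vehicle-dosed mice, all bearing a transplantable tumor.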

[1] = dose: 100.0 mg/kg/injection, schedule: Q01DX009 (ip), vehicle: saline
[2] = dose: 100.0 mg/kg/injection, schedule: Q04DX003 (ip), vehicle: saline
[3] = dose: 200.0 mg/kg/injection, schedule: Q01DX009 (ip), vehicle: saline
[4] = dose: 200.0 mg/kg/injection, schedule: Q04DX003 (ip), vehicle: saline
[5] = dose: 400.0 mg/kg/injection, schedule: Q04DX003 (ip), vehicle: saline
[6] = dose: 100.0 mg/kg/injection, schedule: Q01DX009 (ip), vehicle: Klucel (hydroxypropylcellulose) (HPC)
[7] = dose: 100.0 mg/kg/injection, schedule: Q04DX003 (ip), vehicle: Klucel (hydroxypropylcellulose) (HPC)
[8] = dose: 200.0 mg/kg/injection, schedule: Q01DX009 (ip), vehicle: Klucel (hydroxypropylcellulose) (HPC)
[9] = dose: 200.0 mg/kg/injection, schedule: Q04DX003 (ip), vehicle: Klucel (hydroxypropylcellulose) (HPC)
[10] = dose: 400.0 mg/kg/injection, schedule: Q01DX009 (ip), vehicle: Klucel (hydroxypropylcellulose) (HPC)
[11] = dose: 400.0 mg/kg/injection, schedule: Q04DX003 (ip), vehicle: Klucel (hydroxypropylcellulose) (HPC)
[12] = dose: 50.0 mg/kg/injection, schedule: Q01DX001 (ip), vehicle: saline
[13] = dose: 100.0 mg/kg/injection, schedule: Q01DX001 (ip), vehicle: saline
[14] = dose: 200.0 mg/kg/injection, schedule: Q01DX001 (ip), vehicle: saline
[15] = dose: 400.0 mg/kg/injection, schedule: Q01DX001 (ip), vehicle: saline
[16] = dose: 100.0 mg/kg/injection, schedule: Q01DX001 (ip), vehicle: saline with Tween-80
[17] = dose: 75.0 mg/kg/injection, schedule: Q01DX001 (ip), vehicle: saline
[18] = dose: 150.0 mg/kg/injection, schedule: Q01DX001 (ip), vehicle: saline
[19] = dose: 50.0 mg/kg/injection, schedule: Q01DX009 (ip), vehicle: Klucel (hydroxypropylcellulose) (HPC)
[20] = dose: 50.0 mg/kg/injection, schedule: Q01DX009 (ip), vehicle: saline
[21] = dose: 100.0 mg/kg/injection, schedule: Q04DX003 (ip), vehicle: saline with Tween-80
[22] = dose: 200.0 mg/kg/injection, schedule: Q04DX003 (ip), vehicle: saline with Tween-80
[23] = dose: 400.0 mg/kg/injection, schedule: Q04DX003 (ip), vehicle: saline with Tween-80

Measured: T/C

Cc1cc(=O)c(CO)n[nH]1
inactive: [1] 103 % of control | [2] 101 % of control | [3] 95 % of control | [4] 106 % of control | dose: 400.0 mg/kg/injection, schedule: Q01DX009 (ip), vehicle: saline 98 % of control | [5] 103 % of control

OCCCNc1nc2ccc(Br)cc2c2ccccc12
inactive: [6] 100 % of control | [7] 108 % of control | [8] 89 % of control | [9] 102 % of control | [10] 95 % of control | [11] 102 % of control

ClC1=C(Cl)C2(Cl)C3C4CC(C(I)C4I)C3C1(Cl)C2(Cl)Cl (configuration not stated)
inactive: dose: 75.0 mg/kg/injection, schedule: Q01DX001 (ip), vehicle: other 98 % of control | dose: 150.0 mg/kg/injection, schedule: Q01DX001 (ip), vehicle: other 95 % of control

Cc1ccc(CC(=O)c2c(C)[nH]c3ccccc23)cc1C
inactive: [12] 108 % of control | [13] 96 % of control | [14] 96 % of control | [15] 96 % of control

Cc1ccc(S(=O)(=O)NCCN)cc1
inactive: [2] 97 % of control | [4] 97 % of control

O=c1/c(=C/c2ccccc2)c2cccc3cccc1c32
inactive: dose: 25.0 mg/kg/injection, schedule: Q01DX001 (ip), vehicle: saline with Tween-80 97 % of control | dose: 50.0 mg/kg/injection, schedule: Q01DX001 (ip), vehicle: saline with Tween-80 93 % of control | [16] 97 % of control

Cc1ccc2c(ccc[n+]2C)c1
inactive: [17] 103 % of control | [18] 106 % of control

OCC1OC(n2nc(Cl)c3ccccc32)C(O)C1O (configuration not stated)
inactive: dose: 50.0 mg/kg/injection, schedule: Q01DX005 (ip), vehicle: other 105 % of control | dose: 100.0 mg/kg/injection, schedule: Q01DX005 (ip), vehicle: other 102 % of control | dose: 200.0 mg/kg/injection, schedule: Q01DX005 (ip), vehicle: other 102 % of control

CC1CCC2(C(=O)OC3OC(COC4OC(CO)C(OC5OC(C)C(O)C(O)C5O)C(O)C4O)C(O)C(O)C3O)CCC3(C)C(=CCC4C5(C)CC(O)C(O)C(C)(CO)C5CCC43C)C2C1C (configuration not stated)
inactive: [16] 98 % of control | dose: 200.0 mg/kg/injection, schedule: Q01DX001 (ip), vehicle: saline with Tween-80 98 % of control | dose: 400.0 mg/kg/injection, schedule: Q01DX001 (ip), vehicle: saline with Tween-80 97 % of control

CN(C)C1C(=O)C(C(N)=O)=C(O)C2(O)C(=O)C3=C(O)c4c(O)cccc4C(C)(O)C3C(O)C12 (configuration not stated)
inactive: dose: 19.5 mg/kg/injection, schedule: Q01DX Z (ip), vehicle: carboxymethylcellulose (CMC) 94 % of control | dose: 39.0 mg/kg/injection, schedule: Q01DX Z (ip), vehicle: carboxymethylcellulose (CMC) 91 % of control | [12] 93 % of control | dose: 50.0 mg/kg/injection, schedule: Q01DX Z (ip), vehicle: water 117 % of control | dose: 78.0 mg/kg/injection, schedule: Q01DX Z (ip), vehicle: carboxymethylcellulose (CMC) 89 % of control | [13] 90 % of control | dose: 100.0 mg/kg/injection, schedule: Q01DX Z (ip), vehicle: water 119 % of control | dose: 156.0 mg/kg/injection, schedule: Q01DX Z (ip), vehicle: carboxymethylcellulose (CMC) 98 % of control | [14] 95 % of control | [15] 101 % of control

S=C(NCc1ccccc1)[S][Sn]([S]C(=S)NCc1ccccc1)([c]1ccccc1)[c]1ccccc1
inactive: dose: 5.0 mg/kg/injection, schedule: Q01DX001 (ip), vehicle: steriod suspending solution 98 % of control | dose: 10.0 mg/kg/injection, schedule: Q01DX001 (ip), vehicle: steriod suspending solution 97 % of control | dose: 20.0 mg/kg/injection, schedule: Q01DX001 (ip), vehicle: steriod suspending solution 106 % of control

[NH-]C(CC(N)=O)C(=O)O.[NH-]C(CC(N)=O)C(=O)O.[Ni+2] (configuration not stated)
inactive: dose: 6.25 mg/kg/injection, schedule: Q01DX009 (ip), vehicle: water 92 % of control | dose: 12.5 mg/kg/injection, schedule: Q01DX009 (ip), vehicle: water 91 % of control | dose: 25.0 mg/kg/injection, schedule: Q01DX009 (ip), vehicle: water 88 % of control | dose: 25.0 mg/kg/injection, schedule: Q04DX002 (ip), vehicle: saline 110 % of control | dose: 50.0 mg/kg/injection, schedule: Q04DX002 (ip), vehicle: saline 100 % of control | dose: 50.0 mg/kg/injection, schedule: Q04DX003 (ip), vehicle: water 112 % of control | dose: 100.0 mg/kg/injection, schedule: Q04DX002 (ip), vehicle: saline 123 % of control | dose: 100.0 mg/kg/injection, schedule: Q04DX003 (ip), vehicle: water 117 % of control

c1ccc(CN2CCOCC2)nc1
inactive: [13] 96 % of control | [14] 113 % of control | [15] 98 % of control

CC(=O)ONc1nc(C)c(CCC2OCCO2)c(=O)[nH]1
inactive: [6] 95 % of control | [7] 105 % of control | [8] 102 % of control | [9] 105 % of control | [10] 95 % of control | [11] 98 % of control

Cc1cc(C)c(NC(=O)Nc2ccccc2F)cc1C
inactive: dose: 25.0 mg/kg/injection, schedule: Q01DX009 (ip), vehicle: Klucel (hydroxypropylcellulose) (HPC) 98 % of control | [19] 93 % of control | [6] 96 % of control | dose: 100.0 mg/kg/injection, schedule: Q04DX002 (ip), vehicle: Klucel (hydroxypropylcellulose) (HPC) 102 % of control | [8] 89 % of control | dose: 200.0 mg/kg/injection, schedule: Q04DX002 (ip), vehicle: Klucel (hydroxypropylcellulose) (HPC) 91 % of control | dose: 400.0 mg/kg/injection, schedule: Q04DX002 (ip), vehicle: Klucel (hydroxypropylcellulose) (HPC) 115 % of control

ClC1=C(Cl)C2(Cl)CCC1(Cl)C2Cl (configuration not stated)
inactive: [20] 103 % of control | [1] 98 % of control | [2] 104 % of control | [3] 95 % of control | [4] 103 % of control | [5] 97 % of control

O=P(O)(c1ccccc1)c1cccc(Cl)c1
inactive: [21] 100 % of control | [22] 91 % of control | [23] 94 % of control

COc1ccc(/C=C2\CS(=O)(=O)C/C(=C\c3ccc(OC)cc3)C2=O)cc1
inactive: [13] 94 % of control | [15] 95 % of control

O=C1NC(=O)C2(CCCCCC2)N1
inactive: dose: 50.0 mg/kg/injection, schedule: Q01DX009 (ip), vehicle: saline with Tween-80 101 % of control | dose: 50.0 mg/kg/injection, schedule: Q04DX003 (ip), vehicle: saline with Tween-80 105 % of control | dose: 100.0 mg/kg/injection, schedule: Q01DX009 (ip), vehicle: saline sonified 90 % of control | dose: 100.0 mg/kg/injection, schedule: Q01DX009 (ip), vehicle: saline with Tween-80 101 % of control | [21] 99 % of control and 111 % of control | dose: 200.0 mg/kg/injection, schedule: Q01DX009 (ip), vehicle: saline sonified 96 % of control | dose: 200.0 mg/kg/injection, schedule: Q01DX009 (ip), vehicle: saline with Tween-80 98 % of control | [22] 100 % of control and 110 % of control | dose: 400.0 mg/kg/injection, schedule: Q01DX009 (ip), vehicle: saline sonified 98 % of control | [23] 106 % of control

CCN(CC)CCCC(C)Nc1cc(N)nc2nc(-c3ccc(Br)cc3)cnc12 (configuration not stated)
inactive: [17] 106 % of control | [18] 101 % of control

COC(=O)C1(C)COP(=O)(N2CC2)OC1 (configuration not stated)
inactive: [13] 101 % of control | [14] 106 % of control | [15] 95 % of control

O=C(O)c1c(F)c(F)c(Oc2c(F)c(F)c(F)c(Oc3c(F)c(F)c(C(=O)O)c(F)c3F)c2F)c(F)c1F
inactive: [6] 107 % of control | [7] 100 % of control | [8] 98 % of control | [9] 97 % of control

OC(CCCCC(O)(c1ccccc1)c1ccccc1)(c1ccccc1)c1ccccc1
inactive: [21] 89 % of control | [22] 94 % of control | [23] 96 % of control

CC(=O)OS(C)(=O)=O
inactive: [19] 100 % of control | [6] 100 % of control | [7] 105 % of control

CCN(CC)CCOC(=O)c1cccc(N)c1
inactive: [20] 92 % of control | [1] 111 % of control | [3] 103 % of control
